Reference: patent US11560529B2, “Galactarate based metal sequestration composition” (ZestBio, Inc., priority 2019, dated 2023)

How the values were obtained:
[1] = Calcium sequestration by titration with calcium chloride in presence of sodium oxalate until slight turbidity; format: physicochemical; conditions: 20° C.; for Calcium sequestration capacity, mg Ca^2+/g mixture: Table 4
Method: Salt mixtures of galactaric acid were prepared to the desired composition by mixing sodium galactarate with either sodium borate decahydrate or sodium aluminate to a final weight of 10 grams. In an alternative preparation, galactaric acid was mixed with either sodium borate decahydrate or sodium aluminate. The resulting mixture was dissolved in a stoichiometric solution of sodium hydroxide.
The efficacy of different mixtures of galactaric acid salts and oxyanion salts in sequestering calcium at 20° C. were tested. First, salt mixtures were dissolved in deionized water at 5 g/L. Sodium oxalate stock solution, prepared at 20 g/Land pH 10, was then added to the mixture solution to yield a final concentration of 1 g/L sodium oxalate. The pH was adjusted to 10 for mixtures containing borate as the oxyanion and to 11 for mixtures containing aluminate as the oxyanion with 1M sodium hydroxide or 1M hydrochloric acid. The resulting solutions were aliquoted to 50 mL and slowly titrated with stirring by addition of a 15 g/L anhydrous calcium chloride solution at a rate of 1 mL every 3 minutes until slight turbidity was observed, indicating saturation of calcium by the chelant mixture.
The effect of pH on calcium sequestration by mixtures of galactaric acid salts and oxyanion salts at room temperature was assayed. Mixtures of 70% disodium galactarate and 30% sodium aluminate and 60% disodium galactarate and 40% sodium borate decahydrate were prepared. The resulting mixtures were dissolved in deionized water at 5 g/L and the calcium sequestering capacity was determined, as described above, with the exception that the pH was adjusted to the indicated pH with either 1M sodium hydroxide or 1M hydrochloric acid.
The calcium chelating capacity of a variety of standard compounds and mixtures was determined for 5 g/L solutions dissolved in water, as described above. In all instances the temperature was 20° C. and except where noted, the pH of solution was adjusted to 10 before determination.

[2] = Qualitative solubility of sodium galactarate in water-based solutions; conditions: for solubility at 15 min / solubility at 50 min: 20 °C, thermodynamic from solid, 0.5 g in 50 mL, 20 C, stirring; for solubility at 15 min: Solubility after 15 min.; for solubility at 50 min: Solubility after 50 min.
Method: To characterize the solubility of sodium galactarate, 0.5M solutions of alkali salts and non-alkali base were prepared in deionized water. To 50 mL of each solution 0.5 g of sodium galactarate, was added at 20° C. with stirring.

[3] = pH 10, aqueous buffer, 0.5M NH4OH (pH 10)

Compound: O.O.O=C([O-])CN(CCN(CC(=O)O)CC(=O)O)CC(=O)[O-].[Na+].[Na+] [EDTA, Ethylenedinitrilo Tetraacetic Acid Disodium Salt Dihydrate]
- Calcium sequestration capacity, mg Ca^2+/g mixture ([1]; pH 10, 5 g/L in water): 104 mg Ca^2+/g mixture

Compound: O=C([O-])CC[C@@H](C(=O)[O-])N(CC(=O)[O-])CC(=O)[O-].[Na+].[Na+].[Na+].[Na+] [GLDA, N,N-Dicarboxymethyl glutamic acid tetrasodium salt]
- Calcium sequestration capacity, mg Ca^2+/g mixture ([1]; pH 10, 5 g/L in water): 80 mg Ca^2+/g mixture
- Calcium sequestration capacity, mg Ca^2+/g mixture ([1]; pH 11, 5 g/L in water): 132 mg Ca^2+/g mixture

Compound: O=C([O-])CC(O)(CC(=O)[O-])C(=O)[O-].[Na+].[Na+].[Na+] [Trisodium citrate, trisodium citrate]
- Calcium sequestration capacity, mg Ca^2+/g mixture ([1]; pH 10, 5 g/L in water): 32 mg Ca^2+/g mixture

Compound: O=C([O-])[C@@H](O)[C@H](O)[C@H](O)[C@@H](O)C(=O)[O-].[Na+].[Na+] [sodium galactarate]
- Calcium sequestration, mg Ca^2+/g mixture ([1]; Table 2, no oxyanion salt, pH not stated, 5 g/L, 1 g/L sodium oxalate): 5 mg Ca^2+/g mixture
- Effect of lithium ions present in solution on dissolution ([2]; 20° C.): accelerated dissolution
- Effect of sodium ions in solution (sodium chloride or sodium hydroxide) on dissolution ([2]; 20° C.): inhibited the dissolution
- Solubility (in words) ([2]; 20° C.): soluble in water-based solutions and under basic conditions
- solubility at 15 min ([2]; aqueous buffer, 0.5M LiCl): > 10000 µg/mL
- solubility at 15 min ([2]; aqueous buffer, 0.5M NaOH): < 10000 µg/mL
- solubility at 50 min ([2]; aqueous buffer, 0.5M LiCl): > 10000 µg/mL
- solubility at 50 min ([2]; aqueous buffer, 0.5M NaOH): < 10000 µg/mL
- solubility at 15 min [2, 3]: < 10000 µg/mL
- solubility at 50 min [2, 3]: > 10000 µg/mL
- solubility at 15 min ([2]; saline or isotonic, 0.5M NaCl): < 10000 µg/mL
- solubility at 50 min ([2]; saline or isotonic, 0.5M NaCl): < 10000 µg/mL
- solubility at 15 min ([2]; water, Water): < 10000 µg/mL
- solubility at 50 min ([2]; water, Water): > 10000 µg/mL
